Measurements taken from US7696186B2, “7,9-substituted tetracycline compounds” (Paratek Pharmaceuticals, Inc., priority 2001, dated 2010).

Columns and labels:
Assay in all cases: In Vitro Minimum Inhibitory Concentration (MIC) Assay
Type in all cases: cell-based
Set-up in all cases: key: compounds which were good inhibitors of growth of a particular bacteria are indicated with *; compounds which were very good inhibitors of a particular bacteria are indicated with **; compounds with were particularly good inhibitors of a particular bacteria are indicated with ***
Details in all cases: CAMHB, 35° C., approximately 18 hr
[1] = test system: S. aureus
Method: (§1) In Vitro Minimum Inhibitory Concentration (MIC) Assay
(§2) The following assay is used to determine the efficacy of minocycline compounds against common bacteria. 2 mg of each compound is dissolved in 100 μl of DMSO. The solution is then added to cation-adjusted Mueller Hinton broth (CAMHB), which results in a final compound concentration of 200 μg per ml. The minocycline compound solutions are diluted to 50 μL volumes, with a test compound concentration of 0.098 μg/ml. Optical density (OD) determinations are made from fresh log-phase broth cultures of the test strains. Dilutions are made to achieve a final cell density of 1×10^6 CFU/ml. At OD=1, cell densities for different genera should be approximately:
(§3) 50 μl of the cell suspensions are added to each well of microtiter plates. The final cell density should be approximately 5×10^5 CFU/ml. These plates are incubated at 35° C. in an ambient air incubator for approximately 18 hr. The plates are read with a microplate reader and are visually inspected when necessary. The MIC is defined as the lowest concentration of the minocycline compound that inhibits growth. Compounds of the invention indicate good inhibition of growth.
(§4) In Table 2, compounds which were good inhibitors of growth of a particular bacteria are indicated with *, compounds which were very good inhibitors of a particular bacteria are indicated with **, and compounds with were particularly good inhibitors of a particular bacteria are indicated with ***.

[2] = test system: E. coli
Method: as §1, §2, §3, §4

[3] = test system: E. hirae
Method: as §1, §2, §3, §4

Compound	S. aureus (inhibition of growth, MIC assay) [1]	E. coli (inhibition of growth, MIC assay) [2]	E. hirae (inhibition of growth, MIC assay) [3]
CCc1cc(C#CC2=CCCCC2)c(O)c2c1C[C@H]1C[C@H]3[C@H](N(C)C)C(O)=C(C(N)=O)C(=O)[C@@]3(O)C(O)=C1C2=O [Compound HO, 7-Ethyl-9-Cyclohexenylethynyl-Sancycline]	***	*	***
CN(C)[C@@H]1C(O)=C(C(N)=O)C(=O)[C@@]2(O)C(O)=C3C(=O)c4c(O)c(-c5ccc6c(c5)OCO6)cc(-c5ccc6c(c5)OCO6)c4C[C@H]3C[C@@H]12 [Compound HZ, 7,9-Bis(3,4-Methylenedioxyphenyl)-Sancycline]	***	*	**
CN(C)[C@@H]1C(O)=C(C(N)=O)C(=O)[C@@]2(O)C(O)=C3C(=O)c4c(O)c(CN5C(=O)c6ccccc6C5=O)cc(CN5C(=O)c6ccccc6C5=O)c4C[C@H]3C[C@@H]12 [HB]	**	*	**
COc1ccc(C#Cc2cc(C#Cc3ccc(OC)cc3)c3c(c2O)C(=O)C2=C(O)[C@]4(O)C(=O)C(C(N)=O)=C(O)[C@@H](N(C)C)[C@@H]4C[C@@H]2C3)cc1 [HC]	*	*	*
CN(C)[C@@H]1C(O)=C(C(N)=O)C(=O)[C@@]2(O)C(O)=C3C(=O)c4c(O)c(CN)cc(-c5ccccc5)c4C[C@H]3C[C@@H]12 [HE]	**	*	**
CCc1cc(CNC(=O)c2cccnc2)c(O)c2c1C[C@H]1C[C@H]3[C@H](N(C)C)C(O)=C(C(N)=O)C(=O)[C@@]3(O)C(O)=C1C2=O [HF]	*	*	**
CCc1cc(CN)c(O)c2c1C[C@H]1C[C@H]3[C@H](N(C)C)C(O)=C(C(N)=O)C(=O)[C@@]3(O)C(O)=C1C2=O [HG]	**	*	*
CN(C)[C@@H]1C(O)=C(C(N)=O)C(=O)[C@@]2(O)C(O)=C3C(=O)c4c(O)c(CNC(=O)c5cccnc5)cc(CCC5CCCCC5)c4C[C@H]3C[C@@H]12 [HI]	**	*	**
CN(C)[C@@H]1C(O)=C(C(N)=O)C(=O)[C@@]2(O)C(O)=C3C(=O)c4c(O)c(CN)cc(-c5cccc([N+](=O)[O-])c5)c4C[C@H]3C[C@@H]12 [HJ]	**	*	**
CN(C)[C@@H]1C(O)=C(C(N)=O)C(=O)[C@@]2(O)C(O)=C3C(=O)c4c(O)c(CN5C(=O)c6ccccc6C5=O)cc(-c5cccc([N+](=O)[O-])c5)c4C[C@H]3C[C@@H]12 [HK]	**	*	**
CCCc1cc(CN)c(O)c2c1C[C@H]1C[C@H]3[C@H](N(C)C)C(O)=C(C(N)=O)C(=O)[C@@]3(O)C(O)=C1C2=O [HL]	**	**	**
CN(C)[C@@H]1C(O)=C(C(N)=O)C(=O)[C@@]2(O)C(O)=C3C(=O)c4c(O)c(CN)cc(-c5ccc(F)cc5)c4C[C@H]3C[C@@H]12 [HM]	**	**	**
CN(C)[C@@H]1C(O)=C(C(N)=O)C(=O)[C@@]2(O)C(O)=C3C(=O)c4c(O)c(CNC(=O)CCl)cc(-c5ccccc5)c4C[C@H]3C[C@@H]12 [HN]	***	*	**
CN(C)[C@@H]1C(O)=C(C(N)=O)C(=O)[C@@]2(O)C(O)=C3C(=O)c4c(O)c(C(C)(C)C)cc(-c5cccc([N+](=O)[O-])c5)c4C[C@H]3C[C@@H]12 [HP]	**	*	***
CCCCc1cc(CN)c(O)c2c1C[C@H]1C[C@H]3[C@H](N(C)C)C(O)=C(C(N)=O)C(=O)[C@@]3(O)C(O)=C1C2=O [HQ]	**	**	**
CN(C)[C@@H]1C(O)=C(C(N)=O)C(=O)[C@@]2(O)C(O)=C3C(=O)c4c(O)c(CNC(=O)C5CCCO5)cc(-c5ccc(F)cc5)c4C[C@H]3C[C@@H]12 (stereo partly drawn) [HR]	**	*	**
CCCCCCc1cc(CN)c(O)c2c1C[C@H]1C[C@H]3[C@H](N(C)C)C(O)=C(C(N)=O)C(=O)[C@@]3(O)C(O)=C1C2=O [HS]	**	***	***
CC(=O)NCc1cc(-c2ccc(F)cc2)c2c(c1O)C(=O)C1=C(O)[C@]3(O)C(=O)C(C(N)=O)=C(O)[C@@H](N(C)C)[C@@H]3C[C@@H]1C2 [HT]	**	*	**
CCCCCc1cc(CN2C(=O)c3ccccc3C2=O)c(O)c2c1C[C@H]1C[C@H]3[C@H](N(C)C)C(O)=C(C(N)=O)C(=O)[C@@]3(O)C(O)=C1C2=O [HU]	**	*	***
CCc1cc(CC)c2c(c1O)C(=O)C1=C(O)[C@]3(O)C(=O)C(C(N)=O)=C(O)[C@@H](N(C)C)[C@@H]3C[C@@H]1C2 [HV]	***	**	***
CCc1cc(C#Cc2ccc(OC)cc2)c(O)c2c1C[C@H]1C[C@H]3[C@H](N(C)C)C(O)=C(C(N)=O)C(=O)[C@@]3(O)C(O)=C1C2=O [HW]	**	*	**
CC(=O)NCc1cc(-c2ccccc2)c2c(c1O)C(=O)C1=C(O)[C@]3(O)C(=O)C(C(N)=O)=C(O)[C@@H](N(C)C)[C@@H]3C[C@@H]1C2 [HX]	**	*	***
CC#Cc1cc(C#CC)c2c(c1O)C(=O)C1=C(O)[C@]3(O)C(=O)C(C(N)=O)=C(O)[C@@H](N(C)C)[C@@H]3C[C@@H]1C2 [IA]	*	*	*
